Test results: US7964531B2, “3-phenoxy-4-pyridazinol derivatives and herbicidal composition containing the same” (Mitsui Chemicals Agro, Inc., priority 2001, dated 2011)

Tests used:
Assay type in all cases: in vivo
velvetleaf [1] = experiment: Test Example 6: herbicidal effects, upland (foliar treatment); settings: after 14 days
Source text: (§1) Judgment Standard • 0: Growth inhibition rate; 0 to 9% • 1: Growth inhibition rate; 10 to 19% • 2: Growth inhibition rate; 20 to 29% • 3: Growth inhibition rate; 30 to 39% • 4: Growth inhibition rate; 40 to 49% • 5: Growth inhibition rate; 50 to 59% • 6: Growth inhibition rate; 60 to 69% • 7: Growth inhibition rate; 70 to 79% • 8: Growth inhibition rate; 80 to 89% • 9: Growth inhibition rate; 90 to 98% • 10: Growth inhibition rate; 99 to 100%.
(§2) Upland soil was filled in 150 cm^2 pot, and seeds of barnyardgrass, Cyperus esculentus L., velvetleaf, black nightshade, tall morningglory and corn were sowed, and grown in a greenhouse. After the weeds were grown with 10 to 15 cm or so, a predetermined chemical dosage of the wettable powder prepared in accordance with Preparation example 5 was diluted with water containing 0.05% of GRAMIN S and applied as a foliar treatment. After 14 days from the treatment, herbicidal effects and crop injury were judged in accordance with the judgment standard of Test example 5, and the results were shown in Tables 9 and 10. Incidentally, “-” in the table means no effective ingredient was contained.

black nightshade [2] = experiment: as above; settings: after 14 days
Source text: as §1, §2

barnyardgrass [3] = experiment: as above; settings: after 14 days
Source text: as §1, §2

tall morningglory [4] = experiment: as above; settings: after 14 days
Source text: as §1, §2

Cyperus esculentus L. [5] = experiment: as above; settings: after 14 days
Source text: as §1, §2

velvetleaf [6] = experiment: Test Example 5: herbicidal effects, upland (soil treatment); settings: after 21 days
Method: (§3) Upland soil was filled in 150 cm^2 pot, and seeds of barnyardgrass, Cyperus esculentus L., velvetleaf, black nightshade, tall morningglory and corn were sowed, and grown in a greenhouse. At the next day of seeding, a predetermined chemical dosage of the wettable powder prepared in accordance with Preparation example 5 was diluted with water and applied to soil surface. After 21 days from the treatment, herbicidal effects and crop injury against corn were judged according to the following judgment standard, and the results were shown in Tables 6 to 8.
as §1

black nightshade [7] = experiment: as above; settings: after 21 days
Method: as §3, §1

barnyardgrass [8] = experiment: as above; settings: after 21 days
Method: as §3, §1

tall morningglory [9] = experiment: as above; settings: after 21 days
Method: as §3, §1

Cyperus esculentus L. [10] = experiment: as above; settings: after 21 days
Method: as §3, §1

corn [11] = experiment: Test Example 5: crop injury against corn (soil treatment); settings: after 21 days
Method: as §3, §1

corn [12] = experiment: Test Example 6: crop injury against corn (foliar treatment); settings: after 14 days
Source text: as §1, §2

[13] = system: annual broad-leaved weeds (Lindernia spp. and Rotala indica); experiment: Test Example 4: herbicidal effects of mixed wettable powder, paddy-field pot test; settings: no second compound, after 25 days
Procedure, shortened: (§4)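 Flooded greenhouse pots of paddy soil were sown in the top 1 cm with dormancy-broken weed seeds and planted with tubers, and 2.2-leaf rice was transplanted. Three days later, water-diluted wettable powder was applied at set dosages, and growth inhibition was rated 25 days after that on a 0 (0–15%) to 5 (96–100%) scale.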

Cyperus serotinus [14] = experiment: as above; settings: no second compound, after 25 days
Procedure, shortened: as §4

Sagittaria pygmaea = experiment: as above; settings: no second compound, after 25 days
Procedure, shortened: as §4

Eleocharis kuroguwai = experiment: as above; settings: no second compound, after 25 days
Procedure, shortened: as §4

Scirpus joncoides [15] = experiment: as above; settings: no second compound, after 25 days
Procedure, shortened: as §4

[16] = system: barnyardgrass (Echinochloa oryzicola Vasing.); experiment: as above; settings: no second compound, after 25 days
Procedure, shortened: as §4

[17] = system: indian mustard (Brassica juncea (L.) Czern. et Coss); experiment: Test Example 2: herbicidal effects (soil treatment); settings: dosage 5 kg/a; soil treatment the day after seeding; judged after 21 days
Source text: (§5) Judgment Standard • 0: Growth inhibition rate; 0 to 10% • 1: Growth inhibition rate; 11 to 30% • 2: Growth inhibition rate; 31 to 50% • 3: Growth inhibition rate; 51 to 70% • 4: Growth inhibition rate; 71 to 90% • 5: Growth inhibition rate; 91 to 100%.
(§6) Upland soil was filled in 150 cm^2 pot, and seeds of barnyardgrass and indian mustard (Brassica juncea (L.) Czern. et Coss) were sowed, and grown in a greenhouse. At the next day of seeding, a predetermined chemical dosage of the wettable powder prepared in accordance with Preparation example 1 was diluted in water and applied to soil surface. After 21 days from the treatment, herbicidal effects were judged in accordance with the judgment standard of Test example 1, and the results were shown in Table 3.

barnyardgrass [18] = experiment: as above; settings: dosage 5 kg/a; soil treatment the day after seeding; judged after 21 days
Source text: as §5, §6

[19] = system: transplanted paddy-field rice; experiment: Test Example 1: crop injury against transplanted paddy-field rice; settings: wettable powder applied 3 days after transplanting, judged after 25 days
Procedure, shortened: (§7)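 Herbicidal effect and crop injury were rated 0 (0-10% inhibition) to 5 (91-100%) 25 days after treatment. Water-diluted wettable powder was applied to flooded greenhouse pots 3 days after transplanting 2.2-leaf rice. The pots held seeded weeds and sprouted Cyperus serotinus tubers.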

[20] = system: transplanted paddy-field rice; experiment: Test Example 4: crop injury against transplanted paddy-field rice; settings: no second compound, after 25 days
Procedure, shortened: as §4

Cyperus serotinus [21] = experiment: Test Example 1: herbicidal effects, paddy-field pot test; settings: wettable powder applied 3 days after transplanting, judged after 25 days
Procedure, shortened: as §7

[22] = system: annual broad-leaved weeds (Lindernia spp., Rotala indica); experiment: as above; settings: wettable powder applied 3 days after transplanting, judged after 25 days
Procedure, shortened: as §7

Scirpus joncoides [23] = experiment: as above; settings: wettable powder applied 3 days after transplanting, judged after 25 days
Procedure, shortened: as §7

[24] = system: barnyardgrass (Echinochloa oryzicola Vasing.); experiment: as above; settings: wettable powder applied 3 days after transplanting, judged after 25 days
Procedure, shortened: as §7

CS(=O)(=O)c1ccc(C(=O)C2C(=O)CCCC2=O)c(Cl)c1 [Compound E, 2-(2-chloro-4-mesylbenzoyl)cyclohexan-1,3-dione]
8 (Growth inhibition rate; 80 to 89%): Herbicidal effects Cyperus esculentus (Cyperus esculentus L. [5]; E alone 200 g/ha) | Herbicidal effects Cyperus esculentus (Cyperus esculentus L. [10]; E alone 50 g/ha) | Herbicidal effects Cyperus esculentus (Cyperus esculentus L. [10]; E alone 100 g/ha) | Herbicidal effects Cyperus esculentus (Cyperus esculentus L. [10]; E alone 200 g/ha)
0 (Growth inhibition rate; 0 to 9%): Crop injury against corn (corn [11]; E alone 50 g/ha) | Crop injury against corn (corn [11]; E alone 100 g/ha) | Crop injury against corn (corn [11]; E alone 200 g/ha) | Crop injury against corn (corn [12]; E alone 50 g/ha) | Crop injury against corn (corn [12]; E alone 100 g/ha) | Crop injury against corn (corn [12]; E alone 200 g/ha)
9 (Growth inhibition rate; 90 to 98%): Herbicidal effects Velvetleaf (velvetleaf [1]; E alone 50 g/ha) | Herbicidal effects Black Nightshade (black nightshade [2]; E alone 50 g/ha) | Herbicidal effects Tall Morningglory (tall morningglory [4]; E alone 200 g/ha) | Herbicidal effects Black Nightshade (black nightshade [7]; E alone 200 g/ha) | Herbicidal effects Barnyard grass (barnyardgrass [8]; E alone 100 g/ha)
7 (Growth inhibition rate; 70 to 79%): Herbicidal effects Barnyard grass (barnyardgrass [3]; E alone 200 g/ha) | Herbicidal effects Tall Morningglory (tall morningglory [4]; E alone 100 g/ha) | Herbicidal effects Cyperus esculentus (Cyperus esculentus L. [5]; E alone 100 g/ha) | Herbicidal effects Velvetleaf (velvetleaf [6]; E alone 50 g/ha) | Herbicidal effects Velvetleaf (velvetleaf [6]; E alone 100 g/ha) | Herbicidal effects Black Nightshade (black nightshade [7]; E alone 50 g/ha) | Herbicidal effects Barnyard grass (barnyardgrass [8]; E alone 50 g/ha) | Herbicidal effects Tall Morningglory (tall morningglory [9]; E alone 100 g/ha)
10 (Growth inhibition rate; 99 to 100%): Herbicidal effects Velvetleaf (velvetleaf [1]; E alone 100 g/ha) | Herbicidal effects Velvetleaf (velvetleaf [1]; E alone 200 g/ha) | Herbicidal effects Black Nightshade (black nightshade [2]; E alone 100 g/ha) | Herbicidal effects Black Nightshade (black nightshade [2]; E alone 200 g/ha) | Herbicidal effects Velvetleaf (velvetleaf [6]; E alone 200 g/ha) | Herbicidal effects Barnyard grass (barnyardgrass [8]; E alone 200 g/ha) | Herbicidal effects Tall Morningglory (tall morningglory [9]; E alone 200 g/ha)
6 (Growth inhibition rate; 60 to 69%): Herbicidal effects Tall Morningglory (tall morningglory [4]; E alone 50 g/ha) | Herbicidal effects Cyperus esculentus (Cyperus esculentus L. [5]; E alone 50 g/ha) | Herbicidal effects Black Nightshade (black nightshade [7]; E alone 100 g/ha) | Herbicidal effects Tall Morningglory (tall morningglory [9]; E alone 50 g/ha)
2 (Growth inhibition rate; 20 to 29%): Herbicidal effects Barnyard grass (barnyardgrass [3]; E alone 100 g/ha)
1 (Growth inhibition rate; 10 to 19%): Herbicidal effects Barnyard grass (barnyardgrass [3]; E alone 50 g/ha)

Cc1cccc(Br)c1Oc1nnc(Cl)cc1O [Example 249]
3 (Growth inhibition rate; 56 to 75%): Herbicidal effects Scirpus joncoides (Scirpus joncoides [15]; derivative 5 g/a)
2 (Growth inhibition rate; 36 to 55%): Herbicidal effects Eleocharis kuroguwai (Eleocharis kuroguwai; derivative 10 g/a) | Herbicidal effects Barnyard grass ([16]; derivative 10 g/a)
4 (Growth inhibition rate; 71 to 90%): Herbicidal effects Barnyard-grass (barnyardgrass [18])
3 (Growth inhibition rate; 51 to 70%): Crop injury against transplanted rice ([19]; chemical dosage 20 g/a) | Herbicidal effects Barnyard grass ([24]; chemical dosage 20 g/a)
2 (Growth inhibition rate; 31 to 50%): Herbicidal effects Barnyard grass ([24]; chemical dosage 10 g/a)
1 (Growth inhibition rate; 16 to 35%): Herbicidal effects Eleocharis kuroguwai (Eleocharis kuroguwai; derivative 5 g/a) | Herbicidal effects Barnyard grass ([16]; derivative 5 g/a)
5 (Growth inhibition rate; 96 to 100%): Herbicidal effects Broad leaf ([13]; derivative 5 g/a) | Herbicidal effects Broad leaf ([13]; derivative 10 g/a) | Herbicidal effects Cyperus serotinus (Cyperus serotinus [14]; derivative 5 g/a) | Herbicidal effects Cyperus serotinus (Cyperus serotinus [14]; derivative 10 g/a) | Herbicidal effects Sagittaria pygmaea (Sagittaria pygmaea; derivative 5 g/a) | Herbicidal effects Sagittaria pygmaea (Sagittaria pygmaea; derivative 10 g/a) | Herbicidal effects Scirpus joncoides (Scirpus joncoides [15]; derivative 10 g/a)
0 (Growth inhibition rate; 0 to 10%): Crop injury against transplanted rice ([19]; chemical dosage 10 g/a)
0 (Growth-inhibition rate; 0 to 15%): Crop injury against transplanted rice ([20]; derivative 5 g/a) | Crop injury against transplanted rice ([20]; derivative 10 g/a)
5 (Growth inhibition rate; 91 to 100%): Herbicidal effects indian mustard [17] | Herbicidal effects Cyperus serotinus (Cyperus serotinus [21]; chemical dosage 10 g/a) | Herbicidal effects Cyperus serotinus (Cyperus serotinus [21]; chemical dosage 20 g/a) | Herbicidal effects Broad leaf ([22]; chemical dosage 10 g/a) | Herbicidal effects Broad leaf ([22]; chemical dosage 20 g/a) | Herbicidal effects Scirpus joncoides (Scirpus joncoides [23]; chemical dosage 10 g/a) | Herbicidal effects Scirpus joncoides (Scirpus joncoides [23]; chemical dosage 20 g/a)
